{"source": "patent US7429396B2", "about": "“Antifungal composition, its fungicidal effect on pathogenic dermatophytes, and process for inhibiting growth of fungi” (Bio-Botanica, Inc., priority 2003, dated 2008)", "key": {"S. aureus ATCC 29213": {"system": "S. aureus ATCC 29213", "assay": "Agar Dilution susceptibility method (Example 5)", "format": "cell-based, Staphylococcus aureus", "procedure": "(§1) The Agar Dilution susceptibility method was used to test the effectiveness of the antimicrobial composition of Example 1. The organisms used were S. aureus ATCC 29213, E. coli ATCC 25922, S. typhimurium ATCC 14028, K. pneumoniae ATCC 10031, P. aeruginosa ATCC 27853, C. albicans ATCC 10231, and M. smegmatis ATCC 14468. The organisms were maintained on Tryptic Soy Agar (TSA) slants. For each week, the organisms were cultured in 10 ml of Tryptic Soy Broth (TSB). After incubation at 37° C. for 17 hours (48 hours for M. smegmatis), the organism suspensions were diluted with 10 ml of sterile saline as shown in Table 4. The mold Aspergillus niger was sustained on a Sabouraud Dextrose Agar slant. The sample was then cultured in 10 ml of Tryptic Soy Broth and incubated for 7 days at 22° C. The mold was then diluted in 0.1% Tween 80 in saline. The diluted bacteria and yeast organisms were then inoculated onto the prepared sample plates with a 1 μl loop. The mold Aspergillus niger was added to prepared sample tubes with a 100 μl pipette.\n(§2) Phenyloxyethanol (PE), phenylethyl alcohol (PEA) and methyl/propylparabens (MP) in a ratio of 5:4 were initially screened at their commonly recommended effective concentrations of 0.3% v/v (3 μl/ml); 1% v/v (10 μl/ml); and 0.18% w/v (1 mg methyl and 0.8 mg propylparaben/ml), respectively. The antimicrobial agent was used at an initial concentration of 0.15% v/v (1.5 μl/ml).\nThe sample plates for the bacteria and yeast were prepared as follows: • Prepare 10 ml tubes of TSA and allow to cool to 50° C., • Add the calculated amount of the preservative or antimicrobial agent to 100 μl dimethylsulfoxide (DMSO) to achieve the specified concentration per ml TSA when 100 μl of the DMSO solution are added to a test tube containing 10 ml of TSA, • Vortex to homogenize the mixture in TSA, • Pour TSA and the preservative or antimicrobial agent into a properly labeled Petri dish, • Allow to cool overnight at room temperature. […]\nThe results for the bacteria and yeast were scored in relation to the growth present on the positive control plate. […]"}, "[1]": {"system": "Aspergillus niger ATCC 16404", "assay": "Macro-dilution broth susceptibility method (Example 6)", "format": "cell-based", "procedure": "The mold Aspergillus niger ATCC 16404 was selected for the antifungal testing and maintained on Sabouraud Dextrose Agar. Aspergillus niger is a mold that commonly causes opportunistic infections in humans. Spores are prevalent in soil and on decaying organic matter. Aspergillus niger is also a common cause of contamination in products. The organism was cultured in 10 ml of Tryptic Soy Broth for 7 days at 22° C. After incubation, 1 ml of mold culture was added to 10 ml of 0.1% Tween 80 solution in sterile saline to achieve a spore concentration of 0.5 McFarland (1×10^8 spores/ml). This concentration was determined by visual comparison to a 0.5 McFarland standard. […]\nThe final concentration of mold spores in each sample was 1×10^4-1×10^5 spores/ml. The prepared tubes of TSB were incubated at 37° C. for 5 days, and the results recorded at 3 and 5 days. […]\nThe results were scored in relation to the growth present in the negative control tube. […] Partial activity (P) was recorded when the sample tube of TSB was less turbid than the control tube, and now growth (I) was recorded when there was total inhibition and the broth in the tube appeared clear. When a result of (I) was scored, the MIC was established by performing the appropriate dilutions."}, "E. coli ATCC 25922": {"system": "E. coli ATCC 25922", "assay": "Agar Dilution susceptibility method (Example 5)", "format": "cell-based, Escherichia coli", "procedure": "as §1, §2\nThe sample plates for the bacteria and yeast were prepared as follows: • Prepare 10 ml tubes of TSA and allow to cool to 50° C., • Add the calculated amount of the preservative or antimicrobial agent to 100 μl dimethylsulfoxide (DMSO) to achieve the specified concentration per ml TSA when 100 μl of the DMSO solution are added to a test tube containing 10 ml of TSA, • Vortex to homogenize the mixture in TSA, • Pour TSA and the preservative or antimicrobial agent into a properly labeled Petri dish, • Allow to cool overnight at room temperature.\nThe prepared sample plates were divided into seven sections and the plates labeled according to the preservative or antimicrobial agent. Each section was labeled according to the microorganism to be applied to each section. The diluted organism suspensions were inoculated onto their appropriate section with a 1 μl loop, streaking radially from the center to the outer edge of the plate. A positive control plate was prepared without a preservative or antimicrobial agent of Example 1. The plates were then incubated at 37° C. for 48 hours, recording the results at 24 and 48 hours.\nThe results for the bacteria and yeast were scored in relation to the growth present on the positive control plate. Growth (G) was noted when there was full growth visible and the organism was not affected. […]"}}}
{"smiles": "OCCc1ccccc1", "note": "[Phenylethyl Alcohol]", "values": [{"measurement": "Minimum Inhibitory Concentration (MIC) (sample/ml of agar or broth)", "setting": "S. aureus ATCC 29213", "result": 10.0, "unit": "μl/ml"}, {"measurement": "effect on S. aureus", "setting": "S. aureus ATCC 29213; 0.3 wt %", "result": "no effect"}, {"measurement": "growth score", "setting": "S. aureus ATCC 29213; 6.0 μl/ml", "result": "I"}, {"measurement": "growth score", "setting": "[1]; 2.5 μl/ml", "result": "I"}, {"measurement": "Minimum Inhibitory Concentration (MIC)", "setting": "[1]; macro-dilution broth, Example 6", "result": 2.5, "unit": "μl/ml"}, {"measurement": "Minimum Inhibitory Concentration (MIC) (sample/ml of agar or broth)", "setting": "E. coli ATCC 25922", "result": 5.0, "unit": "μl/ml"}, {"measurement": "growth score", "setting": "E. coli ATCC 25922; 3.0 μl/ml", "result": "I"}, {"measurement": "growth score", "setting": "E. coli ATCC 25922; 5.0 μl/ml", "result": "I"}, {"measurement": "growth score", "setting": "E. coli ATCC 25922; 6.0 μl/ml", "result": "I"}]}
